{"source": "patent CN102488699A", "about": "“芍药苷在制备防治肺纤维化药物中的应用” (China Pharmaceutical University, priority 2011, dated 2012)", "key": {"[1]": {"tested_on": "TGF-β1 protein [TGF-β1蛋白]", "test": "Effect on TGF-β1 protein expression in lung tissue of pulmonary fibrosis mice, Western blot (Fig. 5)", "type": "in vivo, mouse", "details": "intragastric, once daily, day 21"}, "[2]": {"tested_on": "lung tissue of pulmonary fibrosis mice [肺纤维化小鼠肺组织]", "test": "Effect on lung tissue lesions of pulmonary fibrosis mice, HE staining (Fig. 1)", "type": "in vivo, mouse", "details": "intragastric, once daily, day 21, vs model group"}, "[3]": {"tested_on": "lung tissue of pulmonary fibrosis mice [肺纤维化小鼠肺组织]", "test": "Effect on collagen deposition in lung tissue of pulmonary fibrosis mice, Masson staining (Fig. 2)", "type": "in vivo, mouse", "details": "intragastric, once daily, day 21, vs model group"}, "[4]": {"tested_on": "smooth muscle actin (α-SMA) [平滑肌肌动蛋白(α-SMA)]", "test": "Effect on α-SMA expression in lung tissue of pulmonary fibrosis mice, Western blot (Fig. 4)", "type": "in vivo, mouse", "details": "intragastric, once daily, day 21"}, "[5]": {"tested_on": "pulmonary fibrosis mice [肺纤维化小鼠]", "test": "Effect on survival rate of mice with bleomycin-induced pulmonary fibrosis", "type": "in vivo, mouse", "details": "intragastric, once daily from day 1, model group 50.0%; for survival rate: day 21 after bleomycin (5 mg/kg intratracheal)"}, "[6]": {"tested_on": "bleomycin model mice [博来霉素模型小鼠]", "test": "Effect on degree of alveolitis and pulmonary fibrosis in bleomycin model mice (Table 1)", "type": "in vivo, mouse", "details": "intragastric, once daily, day 21, n=3"}, "[7]": {"tested_on": "lipopolysaccharide-induced acute lung injury in mice [脂多糖引起的小鼠急性肺损伤]", "details": "intraperitoneal injection, Inflamm Res 2011,60(10):981-990; cited from earlier work"}, "[8]": {"tested_on": "hydroxyproline in lung tissue of pulmonary fibrosis mice [肺纤维化小鼠肺组织中羟脯氨酸]", "test": "Effect on hydroxyproline content in lung tissue of pulmonary fibrosis mice (Fig. 3)", "type": "in vivo, mouse"}}, "data": [{"molecule": "C[C@@]12C[C@@]3(O)O[C@@H](O1)[C@]1(COC(=O)c4ccccc4)[C@H]3C[C@@]12O[C@@H]1O[C@H](CO)[C@@H](O)[C@H](O)[C@H]1O", "note": "[芍药苷, Paeoniflorin]", "values": [{"measurement": "TGF-β1 expression in lung tissue", "setting": "[1]; 100 mg/kg", "result": "显著降低"}, {"measurement": "degree of alveolitis, HE staining", "setting": "[2]; 100 mg/kg", "result": "肺泡炎程度明显减轻"}, {"measurement": "lung tissue lesions, HE staining", "setting": "[2]; 100 mg/kg", "result": "肺组织结构较完整清晰,少量炎性细胞浸润及成纤维细胞增生,病变程度较模型组轻"}, {"measurement": "collagen deposition and pulmonary fibrosis, Masson staining", "setting": "[3]; 100 mg/kg", "result": "肺组织结构较完整清晰,肺泡间隔轻度增厚,胶原沉积减少,肺纤维化程度明显减轻"}, {"measurement": "α-SMA content in lung tissue", "setting": "[4]; 100 mg/kg", "result": "显著降低"}, {"measurement": "survival rate", "setting": "[5]; 50 mg/kg", "result": 87.5, "unit": "%"}, {"measurement": "survival rate", "setting": "[5]; 100 mg/kg", "result": 75.0, "unit": "%"}, {"measurement": "alveolar inflammation", "setting": "[6]; 100 mg/kg", "result": "抑制肺泡炎症"}, {"measurement": "degree of pulmonary fibrosis", "setting": "[6]; 100 mg/kg", "result": "显著减低肺纤维化程度"}, {"measurement": "protective effect on acute lung injury", "setting": "[7]", "result": "具有明显的保护作用"}, {"measurement": "inhibition of collagen synthesis (in words)", "setting": "[8]; 50, 100 mg/kg, intragastric, once daily, day 21", "result": "剂量依赖性抑制胶原的合成"}, {"measurement": "inhibition at 50 mg/kg", "setting": "[8]; Mus musculus, po, 504 h, 50 mg/kg, intragastric, once daily, day 21, read-out: inhibition rate of hydroxyproline content in lung tissue", "result": 20.6, "unit": "%"}, {"measurement": "inhibition at 100 mg/kg", "setting": "[8]; Mus musculus, po, 504 h, 100 mg/kg, intragastric, once daily, day 21, read-out: inhibition rate of hydroxyproline content in lung tissue", "result": 31.4, "unit": "%"}]}, {"molecule": "CC(=O)OCC(=O)[C@@]1(O)CC[C@H]2[C@@H]3CCC4=CC(=O)C=C[C@]4(C)[C@H]3C(=O)C[C@@]21C", "note": "[泼尼松, 醋酸泼尼松, reference compound]", "values": [{"measurement": "TGF-β1 expression in lung tissue", "setting": "[1]; 6 mg/kg", "result": "显著降低"}, {"measurement": "degree of alveolitis, HE staining", "setting": "[2]; 6 mg/kg", "result": "肺泡炎程度明显减轻"}, {"measurement": "lung tissue lesions, HE staining", "setting": "[2]; 6 mg/kg", "result": "肺组织结构较完整清晰,少量炎性细胞浸润及成纤维细胞增生,病变程度较模型组轻"}, {"measurement": "collagen deposition and pulmonary fibrosis, Masson staining", "setting": "[3]; 6 mg/kg", "result": "肺组织结构较完整清晰,肺泡间隔轻度增厚,胶原沉积减少,肺纤维化程度明显减轻"}, {"measurement": "α-SMA content in lung tissue", "setting": "[4]; 6 mg/kg", "result": "显著降低"}, {"measurement": "survival rate (in words)", "setting": "[5]; 6 mg/kg, day 21 after bleomycin", "result": "与模型组相近"}, {"measurement": "alveolar inflammation", "setting": "[6]; 6 mg/kg", "result": "抑制肺泡炎症"}, {"measurement": "degree of pulmonary fibrosis", "setting": "[6]; 6 mg/kg", "result": "显著减低肺纤维化程度"}, {"measurement": "inhibition at 6 mg/kg", "setting": "[8]; Mus musculus, po, 504 h, read-out: inhibition rate of hydroxyproline content in lung tissue", "result": 31.2, "unit": "%"}]}]}
